The structures appear in SMILES notation. “Also recorded” adds a separate entry of the source.

In data set [1] the test system is 9L rat gliosarcoma cells. The data set can be described thus: 9L cell proliferation assay (cell counting). Type of data set: cell-based. The protocol: Culture Conditions: 9L rat gliosarcoma cells were purchased from ATC (Gaithersburg, Md.) and were maintained in DMEM (Invitrogen) supplemented with 10% heat-inactivated fetal bovine serum (FBS), penicillin (10 IU/ml), streptomycin (10 μg/ml) and 10% non-essential amino acids (all purchased from Invitrogen). Cells were maintained at 37° C. in a humidified incubator containing 5% CO2. They were grown in medium containing 10% FBS, which was then replaced with serum-free medium (give type and source) where 9L cells grow exponentially.
Cell Proliferation Assays: Proliferation studies were performed with cultures plated at a density that ensured exponential growth for at least 5 days. Growth medium were generally replaced by serum free medium 24 hr after plating. […] The concentration of the ethanol added to the media never exceeded 0.1%. Cells were harvested by exposure to a solution of 0.05% Trypsin/EDTA and counted using a hemocytometer.

The subject of data set [2] is HUVECs. The data set can be described thus: HUVECs proliferation assay (CellTiter96 AQueous One). It is filed as cell-based, human. The procedure: HUVECs were seeded onto a 96-well plate at 1×10^4 cells/well. […] Organic solvent concentration never exceeded 0.1% of total culture volume. […] 20 μl of Aqueous One reagent was added to the 100 μl medium in each well. The plates were incubated for 2 hours at 37° C. in a humidified incubator. Absorbance was recorded at 490 nm using a 96-well Bio Kinetics Reader EL340 (Bio-TEK, Winooski, Vt.). The data represent changes in percent absorbance of treated cultures compared with control cells. Three different experiments were carried out, and each point was determined in triplicate.

Data set [3] has as its system U251 human glioma cells. The data set can be described thus: U251 cell proliferation assay (cell counting). It is filed as cell-based. The procedure:
Culture Conditions: Cells were routinely maintained in DMEM (Invitrogen) supplemented with 10% heat-inactivated fetal bovine serum (FBS), penicillin (10 IU/ml), streptomycin (10 μg/ml) and 10% non-essential amino acids (all purchased from Invitrogen). Cells were maintained at 37° C. in a humidified incubator containing 5% CO2. They were grown in medium containing 10% FBS, which was then replaced with serum-free medium where U251 cells grow exponentially. Treatments were initiated one day after serum removal.
Cell Proliferation Assays: Proliferation studies were performed with cultures plated at a density that ensured exponential growth for at least 5 days. Growth medium was generally replaced by serum-free medium 24 hr after plating. Cells were treated with various concentrations of a given compounds for 24 or 48 hr as described in the Methods. […] Organic solvent never exceeded 0.1% of total culture volume. Cells were harvested by exposure to 0.05% trypsin/EDTA and counted using a hemocytometer.

For data set [4], the system named is phospho-tyrosine and phospho-Ser/Thr-Pro proteins. The data set can be described thus: Western blot of tyrosine and serine/threonine protein phosphorylation in U251 cells. Type of data set: cell-based, human. The protocol: They were then pelleted by centrifugation at 1,000 g for 5 min at 4° C. Cells were lysed by adding RIPA buffer [20 mM HEPES (pH 7.4), 100 mM NaCl, 1% Nonidet P-40, 0.1% SDS, 1% deoxycholic acid, 10% glycerol, 1 mM EDTA, 1 mM NaVO3, 50 mM NaF, and Protease Inhibitors Set 1 (Calbiochem, La Jolla, Calif.)]. Plates were then scraped and cells collected in a 1.5-ml centrifuge tube, followed by incubation on ice for 30 min. Homogenates of the cell suspension were centrifuged for 10 min at 14,000 g and 4° C.; the pellets were discarded and protein concentrations in the supernatant determined by bicinchoninic acid (BCA) protein assay.
Typically, 20 μg of protein was separated on a 14% Tris-glycine gel (Invitrogen) and electroblotted on a PVDF membrane (Biotrace, Bothell, Wash.). Membranes were blocked for 1 h at room temperature with blocking buffer [0.2% I-Block reagent (Tropix, Bedford, Mass.), 0.1% Tween-20 in […]] before incubation with primary antibodies in blocking buffer (overnight at 4° C.). […] Both phospho-tyrosine (Y102) and phospho-serine/threonine-Pro MPM2 were detected using a 1:2000 dilution of the corresponding antibodies, whereas phospho-p44/p42MAPK and phospho-SAPK/JNK were detected using 1:1000 antibody dilutions. […]

Data set [5] relates to CYP4A11 mRNA. Kind of data set: RT-PCR of CYP4A11 mRNA in U251 cultures. As to conditions: 10 μM HET0016 for 24 hr. Type of data set: cell-based, human. The procedure: EtOH-treated cultures were used as solvent controls. Briefly, total RNA was isolated with Trizol reagent (Invitrogen) and 1-2 μg RNA was used to synthesize cDNA using a First Strand synthesis kit (Invitrogen). We used PCR primers that specifically recognize CYP4A11, and β-actin-specific primers. A 1 μCi ^32P per sample was added to Platinum PCR Supermix (Invitrogen). The PCR conditions used to amplify CYP4A 11 and β-actin consisted of a precycle of 95° C for 3 min followed by 35 cycles of 95° C for 45 s, 52° C. for 30 s, and 72° C. for 2 min, with final extension at 72° C. for 10 min. The primers used were: β-actin forward primer, 5′-TGCGTGACATTAAGGAGAAG-3′ (SEQ ID NO:3); β-actin reverse primer, 5′-GCT CGT AGC TCT TCT CCA-3′ (SEQ ID NO:4); CYP4A11 forward primer, 5′-CCACCTGGACCAGAGGCCCTACACCACC-3′ (SEQ ID NO:5); CYP4A11 reverse primer, 5′-AGGATATGGGCAGACAGGAA-3′(SEQ ID NO:6). PCR products were subjected to electrophoresis in 5% bis-acrylamide gels and visualized by autoradiography.

In general, inhibition refers to the relative decrease from the control value, in per cent. Read a low inhibition as little suppression. Consider `CCCCc1ccc(N=CNO)c(C)c1` [HET0016, N-hydroxy-N′-(4-butyl-2 methylphenyl) formamidine], for which, in data set [1] (10 μM HET0016, 48 hrs), the “reduction of proliferation of 9L cells” value is listed as 60%. Moreover, in data set [1] (EGF 200 ng/ml + 10 μM HET0016, 24 hr), the “effect on EGF-stimulated growth of 9L cells at 24 hr” value was “prevented the effects of EGF on cells growth”. The “effect on EGF-stimulated growth of 9L cells at 48 hr” value in data set [1] (EGF 200 ng/ml + 10 μM HET0016, 48 hr) is given as “reduced the number of cells”. Also, in data set [1] (EGF 200 ng/ml + HET0016), the “effect on EGF-induced growth of 9L cells” value was “almost abolished”. Moreover, in data set [1] (HET0016 10 nM), the “inhibition of 9L cell growth” value is “some degree of inhibition of cell growth was apparent even though the difference from control was not significant”. In addition, in data set [1] (HET0016 100 μM), the “cytotoxicity to 9L cells (cell detachment, dead cells)” value is “may have a direct cytotoxic effect” and the “effect on 9L cell number” value was “dramatic reduction in cell number”. For the same compound, the “reduction of 9L cell number” value in data set [1] (HET0016 1 and 10 μM, both 24 and 48 hr) is on record as 30-40%. The “dose dependence of inhibition of 9L growth” value in data set [1] (various concentrations of HET0016) is on record as “decreased the proliferation of 9L cells in a dose-related manner; also recorded: produced a dose dependent inhibition”. Besides, the “effect on the proliferative response of HUVECs to VEGF” value in data set [2] (250 ng/ml VEGF + 10 μM HET0016, 24 hours) is given as “abolished; also recorded: blocked the known proliferative response to VEGF; also recorded: blocks the mitogenic activity of VEGF”. For the same compound, in data set [2] (10 μM HET0016), the “effect on basal proliferation rate of HUVECs” value is given as “did not alter basal proliferation rate”. In data set [3] (200 ng/ml EGF + 10 μM HET0016, 48 hr), the “effect on EGF-induced proliferation of U251 cells” value was “inhibited; also recorded: inhibits the effects of EGF”. The “inhibition of proliferation of U251 cancer cells (FIG. 17)” value in data set [3] (96-well plates, HET0016 for 48 hrs) was “about 50%”. In addition, the inhibition at 10 µM in data set [3] (Homo sapiens, U-251, 48 h) is about 60%. Besides, the “concentration dependence of inhibition of U251 proliferation” value in data set [3] (various concentrations) is “suppressed by HET0016 in a concentration-dependent manner”. In data set [4] (10 μM HET0016), the “serine/threonine phosphorylation of proteins” value was “no significant changes”. For the same compound, in data set [4] (10 μM HET0016, 24 and 48 hr), the “tyrosine phosphorylation of proteins” value was “inhibition which was seen at 24 and 48 hr; also recorded: significant decreases at 24 and 48 hr”. Moreover, the CYP4A11 transcript levels entry in data set [5] is recorded as “decreased”.

The values are drawn from patent publication US20050124618A1, “Methods of modulating angiogenesis and cancer cell proliferation” (priority 2003, published 2005).
